These results are taken from US5989846A, “Assays to identify inducers of plant defense resistance” (Rutgers, The State University of New Jersey, priority 1995, dated 1999).

One assay deals with H2 O2. Kind of assay: Abundance of H2O2 in treated tobacco leaves. Format: in vivo. Conditions: FIG. 11. An excerpt:
The abundance of H2 O2 increased in SA- or 3AT-treated tobacco leaves by 50-60% over the control levels observed in water-treated leaves. […] Thus, elevated levels of H2 O2, and in turn, enhanced oxidative stress in vivo, were consistent with inhibition of catalase activity by SA observed in vitro.

The test system of assay [1] is resistance or PR gene expression. Details: key: ++: indicates a high level of biological activity; +: indicates a lower level of biological activity; ±: indicates low, but detectable biological activity in some assays; -: indicates no biological activity. The following applies: Table 3; values reported in literature; cited from earlier work.
The target of assay [2] is T1, catalase activity of SABP (Nicotiana tabacum, UniProt P49319).
T1 sequence (P49319 1-492): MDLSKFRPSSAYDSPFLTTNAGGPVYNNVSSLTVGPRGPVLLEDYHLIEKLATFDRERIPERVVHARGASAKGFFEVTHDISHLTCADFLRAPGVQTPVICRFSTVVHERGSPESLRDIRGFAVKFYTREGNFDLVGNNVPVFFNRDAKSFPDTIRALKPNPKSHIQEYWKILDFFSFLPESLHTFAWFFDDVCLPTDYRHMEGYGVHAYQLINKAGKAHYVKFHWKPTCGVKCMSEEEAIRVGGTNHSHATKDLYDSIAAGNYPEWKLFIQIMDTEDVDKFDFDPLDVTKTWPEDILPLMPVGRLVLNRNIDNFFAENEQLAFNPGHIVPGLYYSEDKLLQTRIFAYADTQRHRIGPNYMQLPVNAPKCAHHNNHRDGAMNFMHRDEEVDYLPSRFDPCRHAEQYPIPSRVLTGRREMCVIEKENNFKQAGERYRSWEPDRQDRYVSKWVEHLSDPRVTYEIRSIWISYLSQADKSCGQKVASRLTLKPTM
Briefly: Catalase activity of highly purified SABP (luminol method). Format: biochemical, tobacco. Conditions: 0.05 h; 1 mM SA or analogue, 1 mM H2O2, 500 ng highly purified SABP. Here is the method: Aliquots (50 μl) were removed from the assay mixture at 30 second intervals to assay for amount of H2 O2 remaining using the luminol method as has been described by Warm and Laties, Phytochem. […] The tube was placed in the measuring chamber and assay was initiated with automatic injection into the mixture of 100 μl of 0.5 mM K3 Fe(CN)6 in 0.2N NH4 OH, pH 9.5. Measurements were integrated over 5 second periods. H2 O2 was calculated from the standard curve constructed with known amounts of H2 O2. Rate constants of SABP catalase activity in the presence or absence of SA or its analogues were then calculated based on a first-order mechanism.

In another assay the test system is ascorbate peroxidase. Kind of assay: Ascorbate peroxidase activity in tobacco leaf extracts. In kind it is biochemical, Nicotiana tabacum cv. Xanthi nc. The following applies: 200 μM compound, corrected for quenching of auto oxidation. In outline: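 Soluble extracts from leaves of 6–8-week Nicotiana tabacum cv. Xanthi nc, desalted into 50 mM potassium phosphate pH 7 with 100 μM ascorbate, were assayed (30–50 μg protein) with or without 100 or 1000 μM SA or INA. Ascorbate oxidation followed as A290 decrease; means of three replicates.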

Assay [3] concerns salicylic acid binding protein. Kind of assay: Competitive [14C] salicylic acid binding assay (spin-column). Details: species or system tobacco. The following applies: [14C] salicylic acid 20 μM. On the procedure:
The 180 kDa native binding protein isolated was tested for binding affinity and specificity. A competitive assay was established using salicylic acid binding protein fractionated from plants as previously described.
A key element during the characterization and the purification process is a simple, inexpensive, sensitive and reliable method for determining the salicylic acid binding activity. For this purpose, spin-column exclusion chromatography was used to separate the bound [^14 C] salicylic acid (excluded) from the bulk free salicylic acid (included). Specifically, a 1.5 ml Eppendorf tube was punctured at the tip with a 20-gauge needle and a small amount of glass wool was added to cover the small hole. The tube was then filled with Bio-Gel P-6DG desalting gel (exclusion limit 6 KDa; purchased from Bio-Rad, Melville, N.Y.) which have been swollen in water. An alternative gel is Sephadex G-25 fine (from Pharmacia, Piscataway, N.J.). Excess liquid in the gel was removed and centrifuged for 5 minutes at full speed in a Dynamic centrifuge (Becton Dickinson). The process was then repeated several times until the gel filled the tube. After incubation of an aliquot of the extract or column fractions for 2 hr at 4° C. with 5 μM-20 μM [^14 C salicylic acid] (specifically radioactivity 55 Ci/mol; purchased from New England Nuclear), 150 μl of proteins binding sample was loaded onto the tube column, which was then rapidly centrifuged for 2 minutes at full speed and the solution of proteins and bound [^14 C-salicylic acid] that was excluded from the gel was collected into another tube that had been placed under the tube column during the centrifugation. One hundred microliters of this solution was then used to determine the amount of bound salicylic acid. […] For example, to determine the inhibitory effect of various salicylic acid analogues on salicylic acid binding activity, these individual analogues were included in the binding mixture containing both the protein and [^14 C] salicylic acid during the 2 hr incubation, and resulting binding activity was determined in comparison to the activity in the absence of these analogues. Likewise, to determine the effect of pH and antioxidants on the binding activity the protein sample was either dialyzed against a large volume of buffers with different pH or antioxidants were added to the protein sample to various concentrations and the resulting binding activities were then determined with the spin-column method in comparison with the activity determined in the absence of these treatments.

A further assay has as its system SABP. Details: concentration or dose not given beside the values. The following applies: Table 6; previously published data (Chen et al. 1993); cited from earlier work.
The target in another assay is T2, bovine catalase (Bos taurus, UniProt P00432).
T2 sequence (P00432 2-527 limits assumed): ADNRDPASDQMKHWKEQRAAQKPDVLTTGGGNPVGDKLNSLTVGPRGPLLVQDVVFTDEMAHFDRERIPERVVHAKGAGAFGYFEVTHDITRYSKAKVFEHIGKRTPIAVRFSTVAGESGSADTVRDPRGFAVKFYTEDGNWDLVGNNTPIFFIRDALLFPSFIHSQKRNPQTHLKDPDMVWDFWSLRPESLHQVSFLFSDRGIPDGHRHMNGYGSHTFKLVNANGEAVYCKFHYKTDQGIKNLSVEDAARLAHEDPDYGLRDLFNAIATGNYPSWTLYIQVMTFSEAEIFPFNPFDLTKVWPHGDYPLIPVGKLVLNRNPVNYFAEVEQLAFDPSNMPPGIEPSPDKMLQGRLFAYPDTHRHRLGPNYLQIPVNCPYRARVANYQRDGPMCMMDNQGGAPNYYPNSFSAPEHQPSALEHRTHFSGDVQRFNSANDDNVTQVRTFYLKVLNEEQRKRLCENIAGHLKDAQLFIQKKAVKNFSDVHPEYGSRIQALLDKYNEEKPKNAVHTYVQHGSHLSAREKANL
The following applies: Kirkman and Gaetani 1984; cited from earlier work.

For `O=C(O)c1cccc(O)c1` [3-Hydroxybenzoic acid], the “Increase in abundance of H2O2 over water-treated leaves” value with H2 O2 was “unable to enhance”. For the same compound, the Biological activity result in assay [1] is given as “-”. Besides, the inhibition (commonly the relative decrease from the control value, in per cent) at 1000 µM in assay [2] is 3.1%. Moreover, the “% Inhibition of ascorbate peroxidase” value with ascorbate peroxidase was 28 ± 7%. Moreover, in assay [3] (40 μM (2×) unlabeled competitor), the “Inhibition (%) 2×” value was -2%. The “Inhibition (%) 10×” value in assay [3] (200 μM (10×) unlabeled competitor) was 0%. Besides, the “Inhibition (%) [14C]SA binding” value in the assay with SABP is 1%.

On to `NC(=O)C1=CN([C@@H]2O[C@H](COP(=O)(O)OP(=O)(O)OC[C@H]3O[C@@H](n4cnc5c(N)ncnc54)[C@H](O)[C@@H]3O)[C@@H](O)[C@H]2O)C=CC1` [NADH, nicotinamide adenine dinucleotide], for which, on bovine catalase, the “Binding to bovine catalase” value is listed as “tightly binds”.

As for `NC(=O)C1=CN([C@@H]2O[C@H](COP(=O)(O)OP(=O)(O)OC[C@H]3O[C@@H](n4cnc5c(N)ncnc54)[C@H](OP(=O)(O)O)[C@@H]3O)[C@@H](O)[C@H]2O)C=CC1` [NADPH, nicotinamide adenine dinucleotide phosphate], the “Binding to bovine catalase” value at bovine catalase was “tightly binds”.
